Values belong to the compound of their own block, whether it stands above or below them.
What was measured:
Prothrombin = Prothrombin (Homo sapiens, UniProt P00734); assay: Inhibition of human alpha-thrombin
Coagulation factor X = Coagulation factor X (Homo sapiens, UniProt P00742); assay: Inhibition of human factor 10a
Trypsin = Trypsin (Homo sapiens, UniProt P07477+P07478+P35030); assay: Inhibition of human trypsin; assay type: protein assay
[1] = target: T1, Fatty-acid amide hydrolase 1 (Rattus norvegicus, UniProt P97612)
T1 sequence (P97612 whole entry): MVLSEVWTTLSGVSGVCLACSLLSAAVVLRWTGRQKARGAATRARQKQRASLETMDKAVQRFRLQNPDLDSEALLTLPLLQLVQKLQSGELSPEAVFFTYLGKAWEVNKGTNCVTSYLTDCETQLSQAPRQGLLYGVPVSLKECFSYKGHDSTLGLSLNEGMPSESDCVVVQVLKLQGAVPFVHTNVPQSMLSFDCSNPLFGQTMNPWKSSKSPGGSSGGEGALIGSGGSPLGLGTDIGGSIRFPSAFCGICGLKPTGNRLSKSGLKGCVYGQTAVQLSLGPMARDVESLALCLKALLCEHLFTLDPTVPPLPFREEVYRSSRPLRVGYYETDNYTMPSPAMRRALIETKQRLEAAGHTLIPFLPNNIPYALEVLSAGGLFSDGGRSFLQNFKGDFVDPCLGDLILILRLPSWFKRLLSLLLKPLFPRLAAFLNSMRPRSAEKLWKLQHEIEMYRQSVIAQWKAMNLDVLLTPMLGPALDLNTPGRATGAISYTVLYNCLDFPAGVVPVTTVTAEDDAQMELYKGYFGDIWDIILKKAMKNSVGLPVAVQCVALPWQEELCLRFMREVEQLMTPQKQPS

Sequence of Coagulation factor X (P00742 41-179 limits assumed): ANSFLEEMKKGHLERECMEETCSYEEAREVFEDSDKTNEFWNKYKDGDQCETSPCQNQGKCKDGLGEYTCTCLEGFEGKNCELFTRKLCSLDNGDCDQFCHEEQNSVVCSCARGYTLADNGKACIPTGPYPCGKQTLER
Sequence of Coagulation factor X (P00742 235-488 limits assumed): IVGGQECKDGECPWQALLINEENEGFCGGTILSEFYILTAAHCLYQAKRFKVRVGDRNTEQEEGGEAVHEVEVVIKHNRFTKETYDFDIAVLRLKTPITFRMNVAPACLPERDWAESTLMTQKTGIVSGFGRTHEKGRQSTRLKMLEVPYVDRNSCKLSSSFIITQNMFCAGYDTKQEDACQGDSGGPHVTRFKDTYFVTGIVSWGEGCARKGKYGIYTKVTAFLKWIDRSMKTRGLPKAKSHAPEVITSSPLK

SMILES: C[C@]12C[C@@H](Cc3ccccc3)CC(=O)N1[C@H](C(=O)N[C@@H](CCCNC(=N)N)C(=O)c1nccs1)CS2
Ki (Prothrombin): 16 nM

IC50 (Coagulation factor X): 2 nM
SMILES: CS(=O)(=O)N[C@H](CCCNC(=N)N)C(=O)NCC(=O)N[C@@H](CCCNC(=N)N)C(=O)c1nccs1

IC50 (Trypsin): 11900 nM
SMILES: N=C(N)N1CCC([C@H](NC(=O)[C@@H]2CC[C@H]3CN(C(=O)CCc4ccccc4)CC(=O)N32)C(=O)c2nccs2)CC1

Ki (Prothrombin): 500 nM | IC50 (Trypsin): 91000 nM
SMILES: N=C(N)N1CCC[C@@H](C[C@H](NC(=O)CN2CC(=O)N(CCCc3ccccc3)CC2=O)C(=O)c2nccs2)C1

IC50 (Coagulation factor X): 320 nM | IC50 (Prothrombin): 7000 nM
SMILES: N=C(N)NCCC[C@H](NC(=O)CN1CCN(C(=O)c2ccccc2)CC1=O)C(=O)c1nccs1

Ki [1]: 3700 nM
SMILES: CCCCCCCC/C=C\CCCCCCCC(=O)c1nnnn1C

IC50 (Trypsin): 9100 nM
SMILES: N=C(N)N1CCC[C@@H](C[C@H](NC(=O)CN2C(=O)CN(CCCc3ccccc3)C(=O)[C@H]2Cc2ccccc2)C(=O)c2nccs2)C1

Ki (Prothrombin): 10 nM
SMILES: C[C@]12C[C@@H](Cc3ccc4nc(C(F)(F)F)ccc4c3)CC(=O)N1[C@H](C(=O)N[C@@H](CCCN=C(N)N)C(=O)c1nccs1)CS2

IC50 (Coagulation factor X): 11 nM | IC50 (Prothrombin): 150000 nM
SMILES: N=C(N)NCCC[C@H](NC(=O)CN1CCN[C@@H](CCCNC(=N)N)C1=O)C(=O)c1nccs1

Ki [1]: 65 nM
SMILES: CCCCCCCC/C=C\CCCCCCCC(=O)c1nnn(C)n1

SMILES: N[C@H]1CC[C@H]([C@H](NC(=O)[C@@H]2CC[C@H]3CN(S(=O)(=O)Cc4ccccc4)CC(=O)N32)C(=O)c2nccs2)CC1
Ki (Prothrombin): 3.2 nM | Ki (Trypsin): 8000 nM

SMILES: N=C(N)NCCC[C@H](NC(=O)[C@@H]1CC[C@H]2CN(S(=O)(=O)Cc3ccccc3)CC(=O)N21)C(=O)c1nccs1
Ki (Prothrombin): 0.2 nM

SMILES: Cn1nnnc1C(=O)[C@@H](NC(=O)[C@@H]1CC[C@H]2CN(S(=O)(=O)Cc3ccccc3)CC(=O)N21)[C@H]1CC[C@H](N)CC1
Ki (Prothrombin): 5 nM | Ki (Trypsin): 35000 nM

IC50 (Coagulation factor X): 2 nM
SMILES: N=C(N)NCCC[C@H](NC(=O)CNC(=O)[C@@H](Cc1c[nH]c2ccccc12)NS(=O)(=O)Cc1ccccc1)C(=O)c1nccs1

IC50 (Coagulation factor X): 2 nM
SMILES: N=C(N)NCCC[C@H](NC(=O)CNC(=O)[C@@H](Cc1ccccc1)NS(=O)(=O)Cc1ccccc1)C(=O)c1nccs1

IC50 (Coagulation factor X): 6 nM
SMILES: CN(CC(=O)N[C@@H](CCCNC(=N)N)C(=O)c1nccs1)C(=O)CNS(=O)(=O)c1ccccc1

IC50 (Trypsin): 470 nM
SMILES: N=C(N)NCCC[C@H](NC(=O)Cn1c(Cc2ccccc2)c(Cl)nc(NCCc2ccccc2)c1=O)C(=O)c1nccs1

SMILES: N=C(N)NCCC[C@H](NC(=O)[C@@H]1CC[C@H]2CN(C(=O)CCc3ccccc3)CC(=O)N21)C(=O)c1nc2ccccc2s1
IC50 (Prothrombin): < 1 nM

IC50 (Coagulation factor X): 44 nM
SMILES: N=C(N)NCCC[C@@H](NS(=O)(=O)Cc1ccccc1)C(=O)NCC(=O)N[C@@H](Cc1ccncc1)C(=O)c1nccs1

Ki (Prothrombin): 5 nM
SMILES: N=C(N)NCCC[C@H](NC(=O)[C@@H]1CC[C@H]2CN(C(=O)CCOc3ccccc3)CC(=O)N21)C(=O)c1nccs1

IC50 (Prothrombin): 110 nM
SMILES: N=C(N)N1CCC[C@@H](C[C@H](NC(=O)CN2C(=O)CN(CCCc3ccc(Cl)cc3)C(=O)[C@H]2Cc2ccccc2)C(=O)c2nccs2)C1

IC50 (Coagulation factor X): 17 nM | IC50 (Prothrombin): 11000 nM
SMILES: NC(N)=NCCC[C@H](NC(=O)CN1CCN(C(=O)Cc2ccccc2)CC1=O)C(=O)c1nccs1

Ki [1]: 130 nM
SMILES: CCCCCCCC/C=C\CCCCCCCC(=O)c1cccnn1

Ki (Prothrombin): 400 nM
SMILES: Cc1cccc(C(C)(C)CN(CC(=O)NCC(=O)NC(CCCN=C(N)N)B(O)O)C(=O)CCc2ccccc2)c1 (single isomer, unassigned)

IC50 (Prothrombin): 2600 nM
SMILES: CC(C)C[C@H](NC(=O)NCc1ccc(Cl)c(Cl)c1)C(=O)N[C@H](C(=O)N[C@@H](CCCN=C(N)N)C(=O)c1nccs1)C(C)C

IC50 (Prothrombin): 1200 nM
SMILES: N=C(N)N1CCC[C@@H](C[C@H](NC(=O)CN2C(=O)CN(c3ccccc3)C(=O)[C@H]2Cc2ccccc2)C(=O)c2nccs2)C1

Ki [1]: 47 nM
SMILES: CCCCC/C=C\C/C=C\C/C=C\C/C=C\CCCC(=O)[n+]1ccccn1

Ki (Prothrombin): 0.7 nM | Ki (Trypsin): 1400 nM
SMILES: N[C@H]1CC[C@H]([C@H](NC(=O)[C@@H]2CC[C@H]3CN(S(=O)(=O)Cc4ccccc4)CC(=O)N32)C(=O)c2nc3ccccc3s2)CC1

Ki [1]: 17 nM
SMILES: CCCCCCCC/C=C\CCCCCCCC(=O)c1ncco1

IC50 (Prothrombin): 1000 nM
SMILES: NC(N)=NCCC[C@H](NC(=O)CN1CCN(S(=O)(=O)c2ccc(Cl)cc2)CC1=O)C(=O)c1nccs1

IC50 (Coagulation factor X): 8 nM | IC50 (Prothrombin): 420 nM
SMILES: NC(N)=NCCC[C@H](NC(=O)CN1CCN(S(=O)(=O)c2ccccc2)CC1=O)C(=O)c1nccs1

Ki [1]: 0.8 nM
SMILES: COc1ccnc(-c2cnc(C(=O)CCCCCCc3ccccc3)o2)c1

Ki [1]: 14 nM
SMILES: CCCCCCCCCC/C=C\CCCCCCC(=O)c1ncc(-c2cccnn2)o1

Ki (Prothrombin): 80 nM | Ki (Trypsin): 65000 nM
SMILES: Cc1nc(C(=O)[C@@H](NC(=O)[C@@H]2CC[C@H]3CN(S(=O)(=O)Cc4ccccc4)CC(=O)N32)[C@H]2CC[C@H](N)CC2)sc1C(=O)O

IC50 (Trypsin): 340 nM
SMILES: C[C@@H]1C(=O)N(CCCc2ccccc2)CC(=O)N1CC(=O)N[C@@H](C[C@@H]1CCCN(C(=N)N)C1)C(=O)c1nccs1

Ki [1]: 50 nM
SMILES: CCCCC(=O)c1nc2ncccc2o1

IC50 (Coagulation factor X): 4 nM | IC50 (Prothrombin): 390 nM
SMILES: NC(N)=NCCC[C@H](NC(=O)CN1CCN(S(=O)(=O)Cc2ccccc2)CC1=O)C(=O)c1nccs1

Ki [1]: 0.75 nM
SMILES: O=C(CCc1ccc(-c2ccccc2)cc1)c1nc(-c2ccccn2)co1

Ki [1]: > 100000 nM
SMILES: CCCCCCCC/C=C\CCCCCCCC(=O)c1nc2ccccc2s1

IC50 (Coagulation factor X): 0.6 nM | IC50 (Prothrombin): 40 nM
SMILES: N=C(N)NCCC[C@H](NC(=O)CNC(=O)[C@@H](CC1CCCCC1)NS(=O)(=O)Cc1ccccc1)C(=O)c1nccs1

Ki [1]: 0.69 nM
SMILES: CCCCCCCC(=O)c1nc2ncccc2o1

Ki (Prothrombin): 2600 nM | Ki (Trypsin): > 400000 nM
SMILES: COC(=O)n1nnnc1C(=O)[C@@H](NC(=O)[C@@H]1CC[C@H]2CN(S(=O)(=O)Cc3ccccc3)CC(=O)N21)[C@H]1CC[C@H](N)CC1

SMILES: N=C(N)NCCC[C@H](NC(=O)[C@@H]1CCCN1C(=O)CC(c1ccccc1)c1ccccc1)C(=O)c1nc2ccccc2s1
Ki (Prothrombin): 1.1 nM

Ki [1]: 1 nM
SMILES: CCCCC/C=C\C/C=C\C/C=C\C/C=C\CCCC(=O)c1nc2ncccc2o1

IC50 (Coagulation factor X): 1 nM
SMILES: N=C(N)NCCC[C@@H](NS(=O)(=O)Cc1ccccc1)C(=O)NCC(=O)N[C@@H](CCCCN)C(=O)c1nccs1

IC50 (Coagulation factor X): 8 nM
SMILES: N=C(N)NCCC[C@@H](N)C(=O)NCC(=O)N[C@@H](CCCNC(=N)N)C(=O)c1nccs1

IC50 (Coagulation factor X): 39 nM | IC50 (Trypsin): > 180000 nM
SMILES: N=C(N)NCCC[C@@H](NS(=O)(=O)Cc1ccccc1)C(=O)NCC(=O)N[C@@H](Cc1c[nH]c2ccccc12)C(=O)c1nccs1

SMILES: C[C@]12C[C@@H](Cc3ccccc3)CC(=O)N1[C@H](C(=O)N[C@@H](CCCN=C(N)N)C(=O)c1nc3ccccc3s1)CS2
Ki (Prothrombin): 18 nM

IC50 (Coagulation factor X): 21 nM | IC50 (Prothrombin): 200000 nM
SMILES: NC(N)=NCCC[C@H](NC(=O)CN1CCN[C@H](CCCN=C(N)N)C1=O)C(=O)c1nccs1

IC50 (Prothrombin): 38 nM
SMILES: NC(N)=NCCC[C@H](NC(=O)CN1CCCC[C@@H](NS(=O)(=O)Cc2ccccc2)C1=O)C(=O)c1nccs1

IC50 (Coagulation factor X): 770 nM | IC50 (Prothrombin): 14000 nM
SMILES: N=C(N)NCCC[C@H](NC(=O)CN1CCN(Cc2ccccc2)CC1=O)C(=O)c1nccs1

IC50 (Prothrombin): 3700 nM | IC50 (Trypsin): 6000 nM
SMILES: CN[C@H](Cc1ccccc1)C(=O)N1CCC[C@H]1C(=O)N[C@](C)(CCCNC(=N)N)C(=O)c1nc2ccccc2s1.O=C(O)C(F)(F)F

IC50 (Prothrombin): < 1 nM | IC50 (Trypsin): 590 nM
SMILES: N=C(N)N1CCC[C@@H](C[C@H](NC(=O)[C@@H]2CC[C@H]3CN(C(=O)CCc4ccccc4)CC(=O)N32)C(=O)c2nc3ccccc3s2)C1

IC50 (Trypsin): 24000 nM
SMILES: C[C@H]1C(=O)N(CCCc2ccccc2)CC(=O)N1CC(=O)N[C@@H](C[C@@H]1CCCN(C(=N)N)C1)C(=O)c1nccs1

IC50 (Coagulation factor X): 28 nM
SMILES: N=C(N)NCCC[C@@H](NS(=O)(=O)Cc1ccccc1)C(=O)NCC(=O)N[C@@H](CC1CCNCC1)C(=O)c1nccs1

Ki [1]: 130 nM
SMILES: COC(=O)c1cccnc1-c1cnc(C(=O)CCCCCCc2ccccc2)o1

IC50 (Coagulation factor X): 0.9 nM | IC50 (Prothrombin): 510 nM
SMILES: N=C(N)NCCC[C@H](NC(=O)CN1CCN(S(=O)(=O)Cc2ccccc2)[C@H](Cc2ccccc2)C1=O)C(=O)c1nccs1

Ki (Prothrombin): 0.8 nM
SMILES: N=C(N)NCCC[C@H](NC(=O)[C@@H]1CCCN1C(=O)[C@H](CO)NS(=O)(=O)c1cccc2ccccc12)C(=O)c1nc2ccccc2s1

IC50 (Coagulation factor X): 59 nM | IC50 (Prothrombin): 2000 nM
SMILES: N=C(N)NCCC[C@H](NC(=O)CN1CCN(S(=O)(=O)Cc2ccccc2)[C@@H](Cc2ccccc2)C1=O)C(=O)c1nccs1

SMILES: NC(N)=NCCC[C@H](NC(=O)[C@@H]1CC[C@H]2CN(C(=O)[C@H](N)Cc3cc4ccccc4[nH]3)CC(=O)N21)C(=O)c1nccs1
Ki (Prothrombin): 1 nM

Ki [1]: 3.7 nM
SMILES: CCCCCCCC/C=C\CCCCCCCC(=O)c1nc2ccncc2o1

Ki (Prothrombin): 18 nM
SMILES: C[C@]12C[C@@H](Cc3ccc4nc(C(F)(F)F)ccc4c3)CC(=O)N1[C@H](C(=O)N[C@@H](CCCNC(=N)N)C(=O)c1nc3ccccc3s1)CS2

Ki [1]: > 100000 nM
SMILES: CCCCCCCC/C=C\CCCCCCCC(=O)c1nccs1

Ki [1]: 90 nM
SMILES: CCCCCCCC/C=C\CCCCCCCC(=O)c1nnco1

IC50 (Coagulation factor X): 110 nM | IC50 (Trypsin): 2.3 nM
SMILES: CC(C)(C)CC(=O)N[C@H](Cc1ccccc1)C(=O)N1CCC[C@H]1C(=O)N[C@@H](CCCNC(=N)N)C(=O)c1nc2ccccc2o1.O=C(O)C(F)(F)F
